# Target: T1, Human 5-lipoxygenase (Homo sapiens, UniProt P09917)
# T1 construct: purchased Cayman 60402; host or cells: insect cells
# T1 sequence (P09917 1-674): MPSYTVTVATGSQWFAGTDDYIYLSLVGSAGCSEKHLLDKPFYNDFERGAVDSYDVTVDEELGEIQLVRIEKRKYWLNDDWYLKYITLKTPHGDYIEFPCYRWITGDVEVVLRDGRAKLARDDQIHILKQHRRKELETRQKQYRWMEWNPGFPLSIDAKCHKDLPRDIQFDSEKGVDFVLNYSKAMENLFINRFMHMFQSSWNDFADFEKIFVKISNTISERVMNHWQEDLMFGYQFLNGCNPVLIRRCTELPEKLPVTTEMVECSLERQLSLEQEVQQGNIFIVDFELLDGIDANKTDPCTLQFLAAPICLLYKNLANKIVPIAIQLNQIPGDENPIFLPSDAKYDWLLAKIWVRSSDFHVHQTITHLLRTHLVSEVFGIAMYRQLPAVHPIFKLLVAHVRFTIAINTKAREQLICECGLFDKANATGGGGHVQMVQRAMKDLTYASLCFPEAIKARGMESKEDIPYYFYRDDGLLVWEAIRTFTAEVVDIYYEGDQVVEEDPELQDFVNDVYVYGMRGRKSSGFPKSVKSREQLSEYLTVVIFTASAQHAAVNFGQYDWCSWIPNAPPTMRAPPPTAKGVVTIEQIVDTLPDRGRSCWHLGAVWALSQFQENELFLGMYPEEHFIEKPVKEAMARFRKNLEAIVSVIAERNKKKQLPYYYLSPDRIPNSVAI
# Assay: Activity of compounds against 5-LO enzyme (LTB4 measurement and/or fluorescence method)
# Format: biochemical
# Conditions: 5-LO, single concentration of 10 uM in duplicate
# Protocol: The activity of compounds against 5-LO were determined by measuring LTB4 (leukotriene B4) levels and/or by a fluorescence method. Both approaches are outlined in more detail below;
# Human 5-lipoxygenase (Cayman, Cat#60402) produced in insect cells was pre-incubated with compound for 15 min at RT in incubation buffer (50 mM Tris-Cl, pH 7.4, 2 mM CaCl2, 0.1 mM ATP, 1% DMSO). The enzymatic reaction was started by adding arachidonic acid to a final concentration of 3 uM. After 5 min of incubation at 37° C., the reaction was stopped by heatinactivation at 80° C. for 5 min. LTB4 levels were quantified by using LTB4 EIA kit (Cayman, Cat#520111) as instructed and/or LTB4 levelswere measured with LC/MS/MS using Quattro Premier™ XE tandem quadrupole mass spectrometer equipped with Acquity UPLC system (Waters, Milford, Mass.). The method was slightly modified as reported previously (Zweifel et al., 2008, Willey et al., 2008, Chappell et al, 2011). Briefly, chromatographic separation was carried out with Acquity UPLC BEH Shield RP18 Column (2.1 mm×50 mm, 1.7 μm particle size, Waters, Milford, Mass.). Sample injection volume was 10 μl, the column temperature was 35° C., the mobile phase A consisted of water with 0.1% formic acid and the mobile phase B consisted of acetonitrile with 0.1% formic acid. Flow rate was 0.4 mL/min and the gradient condition was as follows.
# Relative quantification of LTB4 and LTB4-d4 (Internal Standard) was done using multi reaction monitoring (MRM) of the transitions of m/z 335→195 for LTB4, 339→197 for LTB4-d4 in electrospray ionization (ESI) negative mode. Desolvation temperature was 400° C., source temperature was 130° C. Capillary voltage, cone voltage, and collision voltage were 3.5 kV, 30V, and 20 eV, respectively. Nitrogen was used for desolvation (750 L/h) and cone (50 L/h) gas. Argon was used for collision gas (0.22 ml/min). The dwell time was 10 ms.
# Besides the two methods quantifying LTB4 level, a fluorescence assay measuring 5-HpETE was introduced for high-throughput screening in a 384 well microplate format (Pufahl et al., 2007). For nonspecific ester cleavage of the acetate groups in H2DCFDA, the insect cell lysate expressing human 5-LO (Cayman Cat#60402) was incubated with H2DCFDA (50 mM Tris-Cl, pH 7.5, 2 mM CaCl2, 20 uM H2DCFDA, 500 mU 5-LO per reaction) for 5 minutes. Compound and enzyme mixture were pre-incubated for 5 minutes, and the enzymatic reaction was initiated by addition of ATP and arachidonic acid to a final concentration of 100 uM and 3 uM, respectively. After 5 minutes of incubation, the fluorescence was measured using Spectramax M5 (Molecular Device, Ex/Em=485 nm/530 nm). All steps were carried out at room temperature.
# A total of 378 compounds were initially tested at a single concentration of 10 uM in duplicate with the results summarized in Table 1. From these 378 compounds, 53 compounds plus an additional 25 were selected for confirmation of activity by 6 or 11 point dose response in duplicate with the corresponding IC50 values outlined in Table 2.
row,Compound,inhibition at 10 µM [%]
1,"CCc1nc2cc(Cl)ccn2c1C(=O)NCc1ccc2ccccc2c1 [compound 90, 7-Chloro-2-ethyl-N-(naphthalen-2-ylmethyl)imidazo[1,2-a]pyridine-3-carboxamide]",40 to 69
2,"CCc1nc2ccc(Cl)cn2c1C(=O)NCc1ccc2ccccc2c1 [compound 79, 6-Chloro-2-ethyl-N-(naphthalen-2-ylmethyl)imidazo[1,2-a]pyridine-3-carboxamide]",< 40
3,"CCc1nc2cc(Cl)ccn2c1C(=O)NCc1ccc(-c2ccc(C)cc2)cc1 [compound 87, 7-Chloro-2-ethyl-N-((4′-methylbiphenyl-4-yl)methyl)imidazo[1,2-a]pyridine-3-carboxamide]",40 to 69
4,"CCc1nc2ccc(Cl)cn2c1C(=O)NCc1ccc(C2CCN(C(=O)c3ccc(F)cc3)CC2)cc1 [compound 326, 6-chloro-2-ethyl-N-(4-(1-(4-fluorobenzoyl)piperidin-4-yl)benzyl)imidazo[1,2-a]pyridine-3-carboxamide]",< 40
5,"CCc1nc2ccc(Cl)cn2c1C(=O)NCc1ccc(N2CCC(C)(O)CC2)cc1 [compound 321, 6-chloro-2-ethyl-N-(4-(4-hydroxy-4-methylpiperidin-1-yl)benzyl)imidazo[1,2-a]pyridine-3-carboxamide]",< 40
6,"CCc1nc2cc(Cl)ccn2c1C(=O)NCc1ccc(-c2ccccc2C#N)cc1 [compound 106, 7-Chloro-N-((2′-cyanobiphenyl-4-yl)methyl)-2-ethylimidazo[1,2-a]pyridine-3-carboxamide]",40 to 69
7,"CCc1nc2cc(Cl)ccn2c1C(=O)NCc1ccc(Oc2ccc(OC(F)(F)F)cc2)nc1 [compound 190, 7-Chloro-2-ethyl-N-((6-(4-(trifluoromethoxy)phenoxy)pyridin-3-yl)methy)imidazo[1,2-a]pyridine-3-carboxamide]",> 69
8,"Cc1nc2ccccn2c1C(=O)NCCOc1ccccc1 [compound 28, 2-Methyl-N-(2-phenoxyethyl)imidazo[1,2-a]pyridine-3-carboxamide]",< 40
9,"Cc1nc2c(C#N)cccn2c1C(=O)NCc1ccccc1 [compound 47, N-Benzyl-8-cyano-2-methylimidazo[1,2-a]pyridine-3-carboxamide]",< 40
10,"Cc1nc2ccc(C#N)cn2c1C(=O)NCc1ccccc1 [compound 30, N-Benzyl-6-cyano-2-methylimidazo[1,2-a]pyridine-3-carboxamide]",< 40
11,"CCc1nc2cc(N3CCN(c4ccc(F)cc4)CC3)ccn2c1C(=O)NCc1ccc(N2CCOCC2)cc1 [compound 256, 2-Ethyl-7-(4-(4-fluorophenyl)piperazin-1-yl)-N-(4-morpholinobenzyl)imidazo[1,2-a]pyridine-3-carboxamide]",< 40
12,"CCc1nc2ccc(Cl)cn2c1C(=O)N(C)Cc1ccc(Oc2ccc(F)cc2)cc1 [compound 164, 6-Chloro-2-ethyl-N-(4-(4-fluorophenoxy)benzyl)-N-methylimidazo[1,2-a]pyridine-3-carboxamide]",> 69
13,"CCc1nc2ccc(Cl)cn2c1C(=O)N1CCC(OCc2ccc(Cl)cc2)CC1 [compound 332, (6-chloro-2-ethylimidazo[1,2-a]pyridin-3-yl)(4-((4-chlorobenzyl)oxy)piperidin-1-yl)methanone]",< 40
14,"CCc1nc2ccc(Cl)cn2c1C(=O)N1CCC(OCc2cccc(F)c2)CC1 [compound 336, (6-chloro-2-ethylimidazo[1,2-a]pyridin-3-yl)(4-((3-fluorobenzyl)oxy)piperidin-1-yl)methanone]",< 40
15,CCc1nc2ccc(OC)cn2c1C(=O)NCc1ccc(N2CCOCC2)cc1 [compound 272],< 40
16,CCc1nc2ccc(Cl)cn2c1C(=O)NCc1ccc(N2CCOCC2)cc1 [compound 64],< 40
17,"CCc1nc2cc(Cl)ccn2c1C(=O)NCc1ccc(N2CCC(=O)CC2)cc1 [compound 200, 7-Chloro-2-ethyl-N-(4-(4-oxopiperidin-1-yl)benzyl)imidazo[1,2-a]pyridine-3-carboxamide]",40 to 69
18,"Cc1nc2cc(-c3ccccc3)ccn2c1C(=O)O [compound 19, 2-Methyl-7-phenylimidazo[1,2-a]pyridine-3-carboxylic acid]",< 40
19,CCc1nc2ccc(Cl)cn2c1C(=O)NCc1ccc(Oc2ccccc2)cc1 [compound 62],< 40
20,"Cc1nc2cc(-c3ccccc3)ccn2c1C(=O)NCc1ccccc1 [compound 22, N-Benzyl-2-methyl-7-phenylimidazo[1,2-a]pyridine-3-carboxamide]",40 to 69
21,"CCc1nc2cc(Cl)ccn2c1C(=O)NCc1ccn(-c2ccc(F)cc2)n1 [compound 154, 7-Chloro-2-ethyl-N-((1-(4-fluorophenyl)-1H-pyrazol-3-yl)methyl)imidazo[1,2-a]pyridine-3-carboxamide]",< 40
22,"Cc1nc2ccccn2c1C(=O)NCc1ccc2[nH]ccc2c1 [compound 21, N-((1H-Indol-5-yl)methyl)-2-methylimidazo[1,2-a]pyridine-3-carboxamide]",< 40
23,"CCc1nc2cc(Cl)ccn2c1C(=O)NCc1ccc(OC(F)(F)F)cc1 [compound 107, 7-Chloro-2-ethyl-N-(4-(trifluoromethoxy)benzyl)imidazo[1,2-a]pyridine-3-carboxamide]",40 to 69
24,"CCc1nc2ccc(Br)cn2c1C(=O)NCc1ccc(OC(F)(F)F)cc1 [compound 176, 6-Bromo-2-ethyl-N-(4-(trifluoromethoxy)benzyl)imidazo[1,2-a]pyridine-3-carboxamide]",40 to 69
25,"CCc1nc2cc(Cl)c(Cl)cn2c1C(=O)NCc1ccc(N2CCN(Cc3ccc(F)cc3)CC2)cc1 [compound 179, 6,7-Dichloro-2-ethyl-N-(4-(4-(4-fluorobenzyl)piperazin-1-yl)benzyl)imidazo1,2-al pyridine-3-carboxamide]",40 to 69
26,"CCc1nc2cc(Cl)ccn2c1C(=O)NCc1ccc(-c2ccc(C=O)cc2)cc1 [compound 287, 7-Chloro-2-ethyl-N-((4′-formylbiphenyl-4-yl)methyl)imidazo[1,2-a]pyridine-3-carboxamide]",40 to 69

# Same assay, conditions: 6 or 11 point dose response in duplicate
row,Compound,IC50 [µM]
1,"CCc1nc2cnccn2c1CNc1ccc(N2CCN(c3ccc(F)cc3)CC2)cc1 [compound 398, N-((2-Ethylimidazo[1,2-a]pyrazin-3-yl)methyl)-4-(4-(4-fluorophenyl)piperazin-1-yl)aniline]",< 1
2,"CCc1nc2ccc(Cl)cn2c1C(=O)N1CCC(OCc2ccccc2)CC1 [compound 330, (4-(benzyloxy)piperidin-1-yl)(6-chloro-2-ethylimidazo[1,2-a]pyridin-3-yl)methanone]",> 20
3,"CCc1nc2ccc(Cl)cn2c1C(=O)N1CC[C@@H](OCc2ccc(OC(F)(F)F)cc2)C1 [compound 391, (R)-(6-chloro-2-ethylimidazo[1,2-a]pyridin-3-yl)(3-(4-(trifluoromethoxy)benzyloxy)-pyrrolidin-1-yl)methanone]",1 to 20
4,"CCc1nc2cc(Cl)ccn2c1C(=O)NCc1ccc(Oc2ccc(OC(F)(F)F)cc2)nc1 [compound 190, 7-Chloro-2-ethyl-N-((6-(4-(trifluoromethoxy)phenoxy)pyridin-3-yl)methy)imidazo[1,2-a]pyridine-3-carboxamide]",1 to 20
5,"CCc1nc2ccc(Cl)cn2c1C(=O)N(C)Cc1ccc(Oc2ccc(F)cc2)cc1 [compound 164, 6-Chloro-2-ethyl-N-(4-(4-fluorophenoxy)benzyl)-N-methylimidazo[1,2-a]pyridine-3-carboxamide]",1 to 20
